Measured values as given in PMC10859961, “Ir(III) Half-Sandwich Photosensitizers with a π-Expansive Ligand for Efficient Anticancer Photodynamic Therapy” (Journal of Medicinal Chemistry, 2024).
Where two headings read alike, the source gives them in different places.

What was measured:
A549 cancer cells = experiment: MTT cell viability assay, dark or photoactivated; format: cell-based, human; conditions: A549; for IC50: 4 h incubation; for IC50 / PI green light (IC50,dark/IC50,light) / PI red light (IC50,dark/IC50,light) / PI blue light (IC50,dark/IC50,light): MTT; for PI green light (IC50,dark/IC50,light): green light 530 nm; for PI green light (IC50,dark/IC50,light) / PI red light (IC50,dark/IC50,light) / PI blue light (IC50,dark/IC50,light): 24.1 J cm^–2; for PI/Dose: dose 24.1 J cm‐2, PI from MTT; for PI red light (IC50,dark/IC50,light): red light 655 nm; for PI blue light (IC50,dark/IC50,light): blue light 460 nm
Method: Cells were cultured in 96-well plates at a density of 3000 (A549), 2500 (HeLa), or 5000 (PC-3, 1BR.3.G, and MRC-5) cells per well in cell culture medium and allowed to attach for 24 h. Solutions of the complexes at different concentrations were prepared for cell treatments. In all cases, the solid compounds were weighed using an analytical balance (Mettler Toledo AX205DR) to ensure precise measurements. Subsequently, 5 mM solutions were prepared using DMSO. Solutions were then diluted in water to reach a concentration of 1 mM and then, aliquots were taken and diluted in culture medium to obtain solutions ranging from 0 to 50 μM. […] The cells were treated with these solutions in dark conditions or following the photoactivation protocol (see below). 48 h later the treatments were removed, and cells were washed with phosphate-buffered saline (PBS).
Initially, the effect of the complexes on the cell viability was determined by the 3-(4,5-dimethylthiazol-2-yl)-2,5-diphenyltetrazolium bromide (MTT) assay.[147] The cells were incubated for 2 h with 100 μL of culture medium together with 10 μL of MTT (Sigma-Aldrich) at 0.5 mg/mL. After discarding the medium, DMSO was added to each well to dissolve the purple formazan crystals. The absorbance of each well was determined on a Multiscan Plate Reader (Synergy 4, Biotek, Winooski) at a wavelength of 570 nm. Cell viability was also assessed using the CyQUANT Direct Cell Proliferation Assay (Thermo Fisher Scientific), following the manufacturer’s instructions. Briefly, after the treatments, the cells were washed with PBS, and an equal volume of culture medium and CyQUANT mix was added to each well. The plates were then incubated for 1 h at 37 °C. Subsequently, the fluorescence intensity was bottom read using a Multiscan Plate Reader (Synergy 4, Biotek, Winooski) with excitation and emission filters of 485 and 528 nm, respectively. In both assays, at least three replicates were measured for each treatment. The concentration that reduces the cell viability by 50% (IC50) was established using the Gen5 software (BioTek). Three independent experiments were carried out for each compound. […] The phototoxicity index (PI = IC50,dark/IC50,light) was determined.
To assess the photodynamic activity of the complexes, cells were incubated with the complexes for 4 h to enable their intracellular accumulation. The cells were then irradiated with light with a wavelength of 460 nm (blue), 530 nm (green), or 655 nm (red) for 1 h using a LED system (LuxLight) with an effective power of 6.7 mW cm^–2, which provides a total light dose of 24.1 J cm^–2. The LED system was positioned at 25 mm from the cell culture plates.

A549 cells [1] = experiment: Trypan blue exclusion test; format: cell-based, human; conditions: complexes at respective IC50 in the dark, 24 h
Method: To assess the cytotoxicity of the complexes, A549 cells were seeded in 96-well plates and treated with the complexes at the respective IC50,dark value. After 24 h of incubation, 10 μL of Trypan Blue (0.4% solution; Sigma) was added directly to the wells to avoid loss of dead cells in the treatment washes. After 10 min, images of the cells were captured using an Olympus CKX41 Microscope equipped with LCmicro software (Olympus).

[2] = system: porcine red blood cells (RBC); experiment: Hemolytic activity (hemoglobin release); format: cell-based; conditions: dark, 1 hour
Method: The hemolytic activities of the complexes were determined by measuring hemoglobin release from porcine red blood cells (RBC). First, fresh porcine blood commercially obtained was diluted to 5% v/v in PBS solution and washed three times with PBS by centrifugation at 1000 rcf for 10 min. Then, RBC suspension (150 μL) was mixed with 150 μL of each complex at concentrations ranging from 1 to 50 μM. A solution of 0.2% Triton X-100 in PBS was used as positive control to induce complete hemolysis. PBS alone was used as negative control. Samples were incubated at 37 °C for 1 h in an orbital shaker (50 rpm) and then centrifuged at 3500 rcf for 10 min. 80 μL aliquots of the supernatant were transferred to a 96-well plate and diluted with 80 μL of Milli-Q water. Hemolysis was evaluated by measuring the absorbance of the samples at 540 nm with a Synergy 4 plate reader (BioTek, Winooski). The percentage of hemolysis (H) was calculated using eq 4: [drawing 25] 4 where As is the absorbance for a given sample, An is the absorbance for the negative control, and Ap is the absorbance for the positive control. Each sample was tested in triplicate.

A549 cells [3] = experiment: Intracellular ROS production (CM-H2DCFDA, flow cytometry); format: cell-based, human; conditions: for elevation of ROS levels (median fluorescence): 10 nM, 4 h then blue light 1 h, vs untreated control; for increase in cellular ROS content: complexes at IC50,dark, 5 h, no irradiation
Method: A549 cells were seeded onto 24-well plates (5 × 10^4 cells/well) 24 h before the experiment. The cells were incubated for 4 h with complexes 2, 4, 6, and 8 at 10 nM and then photoactivated or kept in the dark for an additional hour. In addition, the cells were treated for 5 h with the complexes at the corresponding IC50,dark without irradiation. The cells exposed for 30 min to 0.5 μM FeCl2 and 0.04% H2O2, as ROS inducers, were used as positive control. After the treatments, the cells were washed with PBS and harvested by trypsinization. Intracellular ROS were detected by incubation with the chloromethyl 2′,7′-dichlorodihydrofluorescein diacetate (CM-H2DCFDA; Invitrogen) probe at 2.5 μM for 30 min at 37 °C. After washing with PBS, the median fluorescence of 1 × 10^4 cells was measured with a NovoCyte flow cytometer (Agilent Technologies) equipped with the NovoExpress software. The fold increase versus control untreated cells was determined for each treatment in three independent experiments.

A549 cells [4] = experiment: Lysosome damage (Acridine Orange, confocal microscopy); format: cell-based, human; conditions: 10 nM, blue light irradiation
Method: For confocal microscopy experiments, A549 cells were seeded onto glass-bottom 8-well chamber slides (Ibidi) (5 × 10^4 cells per well) and allowed to attach overnight. In each experiment, the cells were treated with the complexes at the indicated conditions and washed with PBS before staining. For mitochondria visualization, the cells were incubated with the fluorescent dye MitoTracker Red CMXRos (Molecular Probes) at 200 nM in serum-free culture medium for 30 min at 37 °C. Cell nuclei were counterstained in blue with Hoechst 33342 (Invitrogen) diluted 1:4000 in DMEM without phenol red. To analyze lysosomal damage, the cells were incubated with AO at 5 μM at 37 °C for 15 min. Before observation, the cells were washed twice with PBS and fresh growth medium without phenol red was added. Cell images were immediately obtained by a Nikon A1R confocal microscope and images were analyzed using the NIS-Elements AR (Nikon, Japan) and the Fiji/ImageJ software.

[5] = blue light 460 nm 1 h (24.1 J cm^–2), 48 h, read-out: IC50 blue light
[6] = green light 530 nm 1 h (24.1 J cm^–2), 48 h, read-out: IC50 green light
[7] = kept in the dark, viability after 48 h, read-out: IC50 dark
[8] = red light 655 nm 1 h (24.1 J cm^–2), 48 h, read-out: IC50 red light

SMILES	IC50 (A549 cancer cells; [5]) [nM]	IC50 (A549 cancer cells; [6]) [nM]	IC50 (A549 cancer cells; [7]) [nM]	PI green light (IC50,dark/IC50,light) (A549 cancer cells)	PI/Dose (A549 cancer cells; 530 nm)	IC50 (A549 cancer cells; [8]) [nM]	PI red light (IC50,dark/IC50,light) (A549 cancer cells)	proportion of cells with uptake of trypan blue dye (A549 cells [1]) [%]	Hemolytic activity ([2]; 1 μM) [%]	Hemolytic activity ([2]; 5 μM) [%]	Hemolytic activity ([2]; 10 μM) [%]	Hemolytic activity ([2]; 25 μM) [%]	elevation of ROS levels (median fluorescence) (A549 cells [3]) [fold]	increase in cellular ROS content (A549 cells [3]) [fold]	red fluorescent particles (lysosomes, AO staining) (A549 cells [4])	PI blue light (IC50,dark/IC50,light) (A549 cancer cells)	PI/Dose (A549 cancer cells; 460 nm)	PI/Dose (A549 cancer cells; 655 nm)
Cc1c(C)c(C)[c-](C)c1C.[Cl][Ir]1[c]2cccc3c4nc5ccccc5nc4c4ccc[n+]1c4c23 [complex 1, [(η^5-C5Me5)IrCl(pbpz)]]	2900 ± 400	5800 ± 100	8000 ± 1000	1.4	–	–	–	–	–	–	–	–	–	–	–	–	–	–
Cc1c(C)c(C)[c-](C)c1C.F[B-](F)(F)F.c1ccc2cc3nc4c5ccc[n+]6c5c5[c](cccc5c4nc3cc2c1)[Ir]6[n+]1cc[nH]c1 [complex 4, [(η^5-C5Me5)Ir(Im)(pbpn)]BF4]	3.2 ± 2	10 ± 3	2900 ± 1000	294	12.2	120 ± 50	25	54	0	0	0.5	6.7	2.2	2.8	completely disappeared	–	–	–
Cc1c(C)c(C)[c-](C)c1C.F[B-](F)(F)F.c1ccc2nc3c4ccc[n+]5c4c4[c](cccc4c3nc2c1)[Ir]5[n+]1ccn(CCN2CCCCC2)c1 [complex 5, [(η^5-C5Me5)Ir(Imepip)(pbpz)]BF4]	390 ± 100	520 ± 20	830 ± 20	1.6	–	–	–	–	–	–	–	–	–	–	–	2.1	–	–
Cc1c(C)c(C)[c-](C)c1C.F[B-](F)(F)F.c1ccc2cc3nc4c5ccc[n+]6c5c5[c](cccc5c4nc3cc2c1)[Ir]6[n+]1ccn(CCN2CCCCC2)c1 [complex 6, [(η^5-C5Me5) Ir(Imepip)(pbpn)]BF4]	1.5 ± 0.5	11 ± 4	2000 ± 100	179	–	32 ± 10	63	53	0	0	1.0	10.7	2.4	2.6	completely disappeared	–	54.6	2.6
Cc1c(C)c(C)[c-](C)c1C.F[B-](F)(F)F.c1ccc(Cn2cc[n+]([Ir]3[c]4cccc5c6nc7ccccc7nc6c6ccc[n+]3c6c45)c2)cc1 [complex 7, [(η^5-C5Me5)Ir(bzIm)(pbpz)]BF4]	650 ± 200	470 ± 40	770 ± 200	1.7	–	–	–	–	–	–	–	–	–	–	–	1.2	–	–
Cc1c(C)c(C)[c-](C)c1C.F[B-](F)(F)F.c1ccc(Cn2cc[n+]([Ir]3[c]4cccc5c6nc7cc8ccccc8cc7nc6c6ccc[n+]3c6c45)c2)cc1 [complex 8, [(η^5-C5Me5)Ir(bzIm)(pbpn)]BF4]	0.2 ± 0.1	2.1 ± 0.4	150 ± 50	71	–	30 ± 20	5	23	0.2	1.0	3.2	16.3	5.6	1.7	completely disappeared	–	–	–
